From PubChem BioAssay AID2060907 (Molecular Pharmacology Branch, DTP, NCI, 2025)

Tested on: 388556-164-R-J1-PDC complex spheroid viability
Experiment: Anticancer human tumor 388556-164-R-J1-PDC patient-derived colon adenocarcinoma cell line growth inhibition [RAS]
Conditions: for viability, T/C: stronger effect = lower value; active = viability on the fitted dose curve at most 10% of control; inactive = the rest
Method in brief: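 Multi-cell-type spheroids: tumor cells plus HUVEC endothelial cells and mesenchymal stem cells. RAS-pathway inhibitors were combined with targeted agents, each dosed in half-log steps down from clinical Cmax, or from 10 microM when Cmax was unknown.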

[1] = curve of first compound, second compound 0.000949 µM
[2] = curve of first compound, second compound 0.003 µM
[3] = curve of first compound, second compound 0.00949 µM
[4] = curve of first compound, second compound 0.03 µM
[5] = curve of first compound, second compound 0.0949 µM
[6] = curve of first compound, second compound 0.3 µM
[7] = second compound 0.000949 µM, first compound 0.00316 µM
[8] = second compound 0.000949 µM, first compound 0.01 µM
[9] = second compound 0.000949 µM, first compound 0.0316 µM
[10] = second compound 0.000949 µM, first compound 0.1 µM
[11] = second compound 0.000949 µM, first compound 0.316 µM
[12] = second compound 0.000949 µM, first compound 1 µM
[13] = second compound 0.003 µM, first compound 0.00316 µM
[14] = second compound 0.003 µM, first compound 0.01 µM
[15] = second compound 0.003 µM, first compound 0.0316 µM
[16] = second compound 0.003 µM, first compound 0.1 µM
[17] = second compound 0.003 µM, first compound 0.316 µM
[18] = second compound 0.003 µM, first compound 1 µM
[19] = second compound 0.00949 µM, first compound 0.00316 µM
[20] = second compound 0.00949 µM, first compound 0.01 µM
[21] = second compound 0.00949 µM, first compound 0.0316 µM
[22] = second compound 0.00949 µM, first compound 0.1 µM
[23] = second compound 0.00949 µM, first compound 0.316 µM
[24] = second compound 0.00949 µM, first compound 1 µM
[25] = second compound 0.03 µM, first compound 0.00316 µM
[26] = second compound 0.03 µM, first compound 0.01 µM
[27] = second compound 0.03 µM, first compound 0.0316 µM
[28] = second compound 0.03 µM, first compound 0.1 µM
[29] = second compound 0.03 µM, first compound 0.316 µM
[30] = second compound 0.03 µM, first compound 1 µM
[31] = second compound 0.0949 µM, first compound 0.00316 µM
[32] = second compound 0.0949 µM, first compound 0.01 µM
[33] = second compound 0.0949 µM, first compound 0.0316 µM
[34] = second compound 0.0949 µM, first compound 0.1 µM
[35] = second compound 0.0949 µM, first compound 0.316 µM
[36] = second compound 0.0949 µM, first compound 1 µM
[37] = second compound 0.3 µM, first compound 0.00316 µM
[38] = second compound 0.3 µM, first compound 0.01 µM
[39] = second compound 0.3 µM, first compound 0.0316 µM
[40] = second compound 0.3 µM, first compound 0.1 µM
[41] = second compound 0.3 µM, first compound 0.316 µM
[42] = second compound 0.3 µM, first compound 1 µM
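Also: spheroids exposed to compound for 7 days before readout.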
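For viability, T/C in this document: 100% = DMSO vehicle control luminescence.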

C=CC(=O)N1CCN(c2nc(OCC3CCCN3C)nc3c(F)c(-c4nc(N)cc(C)c4C(F)(F)F)c(Cl)cc23)C(C)C1 (configuration not stated) + CCn1c(-c2cc(N3CCN(C)CC3)cnc2C(C)OC)c2c3cc(ccc31)-c1csc(n1)CC(NC(=O)C1CC1C)C(=O)N1CCCC(N1)C(=O)OCC(C)(C)C2
> 1000 nM: IC50 [1] | IC50 [2] | IC50 [3] | IC50 [4]
< 3.16 nM: IC50 [5] | IC50 [6]
inactive: viability, T/C [7] 90.9% | viability, T/C [8] 97.7% | viability, T/C [9] 86.2% | viability, T/C [10] 91.5% | viability, T/C [11] 92.1% | viability, T/C [12] 93.5% | viability, T/C [13] 94.8% | viability, T/C [14] 83.5% | viability, T/C [15] 92.7% | viability, T/C [16] 86.9% | viability, T/C [17] 86.5% | viability, T/C [18] 84.2% | viability, T/C [19] 87% | viability, T/C [20] 79.5% | viability, T/C [21] 78.8% | viability, T/C [22] 70.4% | viability, T/C [23] 85% | viability, T/C [24] 65.9% | viability, T/C [25] 63.6% | viability, T/C [26] 68.7% | viability, T/C [27] 62.2% | viability, T/C [28] 62.3% | viability, T/C [29] 63.3% | viability, T/C [30] 62% | viability, T/C [31] 43.2% | viability, T/C [32] 39.9% | viability, T/C [33] 43.1% | viability, T/C [34] 49.5% | viability, T/C [35] 52.8% | viability, T/C [36] 45.6% | viability, T/C [37] 33.2% | viability, T/C [38] 31% | viability, T/C [39] 30.9% | viability, T/C [40] 34.9% | viability, T/C [41] 38% | viability, T/C [42] 32%

O=C(c1ccc(F)c(F)c1Nc1ccc(I)cc1F)N1CC(O)([C@@H]2CCCCN2)C1
inactive: viability, T/C (compound 0.01 µM) 93.1% [middle of 4 runs] | viability, T/C (compound 0.0316 µM) 82.8% [middle of 4 runs] | viability, T/C (compound 0.1 µM) 56.3% [middle of 4 runs] | viability, T/C (compound 0.316 µM) 40.9% [middle of 4 runs] | viability, T/C (compound 1 µM) 22.8% [middle of 4 runs]
164 nM [middle of 4 runs]: IC50 (curve of compound)

O=C(c1ccc(F)c(F)c1Nc1ccc(I)cc1F)N1CC(O)([C@@H]2CCCCN2)C1 + CCn1c(-c2cccnc2C(C)OC)c2c3cc(ccc31)N1CCOC(CC(NC(=O)C(C(C)C)N(C)C(=O)C3(F)CCN(C(=O)C#CC(C)(C)N(C)C)CC3)C(=O)N3CCCC(N3)C(=O)OCC(C)(C)C2)C1
inactive: viability, T/C [7] 94% | viability, T/C [8] 91.1% | viability, T/C [9] 81.7% | viability, T/C [10] 70.6% | viability, T/C [11] 43% | viability, T/C [12] 25.2% | viability, T/C [13] 104% | viability, T/C [14] 97.3% | viability, T/C [15] 76.4% | viability, T/C [16] 60.8% | viability, T/C [17] 39.5% | viability, T/C [18] 22.5% | viability, T/C [19] 100% | viability, T/C [20] 96.8% | viability, T/C [21] 77.7% | viability, T/C [22] 64.8% | viability, T/C [23] 47.6% | viability, T/C [24] 22.6% | viability, T/C [25] 115% | viability, T/C [26] 98.1% | viability, T/C [27] 89.9% | viability, T/C [28] 62.5% | viability, T/C [29] 37.6% | viability, T/C [30] 22.3% | viability, T/C [31] 102% | viability, T/C [32] 97.5% | viability, T/C [33] 84.8% | viability, T/C [34] 57.8% | viability, T/C [35] 41.5% | viability, T/C [36] 23.3% | viability, T/C [37] 81.5% | viability, T/C [38] 81.8% | viability, T/C [39] 72.8% | viability, T/C [40] 59.1% | viability, T/C [41] 39.7% | viability, T/C [42] 20.2%
241 nM: IC50 [1]
175 nM: IC50 [5]
173 nM: IC50 [2]
247 nM: IC50 [3]
185 nM: IC50 [4]
172 nM: IC50 [6]

Nc1ccn(C2OC(CO)C(O)C2(F)F)c(=O)n1 (configuration not stated) + CCn1c(-c2cc(N3CCN(C)CC3)cnc2C(C)OC)c2c3cc(ccc31)-c1csc(n1)CC(NC(=O)C1CC1C)C(=O)N1CCCC(N1)C(=O)OCC(C)(C)C2
> 1000 nM: IC50 [1] | IC50 [2] | IC50 [3]
inactive: viability, T/C [7] 88.9% | viability, T/C [8] 93.5% | viability, T/C [9] 76.6% | viability, T/C [10] 73.6% | viability, T/C [11] 67.1% | viability, T/C [12] 71.1% | viability, T/C [13] 101% | viability, T/C [14] 84% | viability, T/C [15] 70% | viability, T/C [16] 65% | viability, T/C [17] 65.3% | viability, T/C [18] 61.8% | viability, T/C [19] 80.1% | viability, T/C [20] 62.9% | viability, T/C [21] 60.7% | viability, T/C [22] 57.8% | viability, T/C [23] 56.9% | viability, T/C [24] 52.7% | viability, T/C [25] 72% | viability, T/C [26] 53.4% | viability, T/C [27] 56.5% | viability, T/C [28] 47.1% | viability, T/C [29] 52.3% | viability, T/C [30] 46.1% | viability, T/C [31] 42.1% | viability, T/C [32] 46.2% | viability, T/C [33] 40.6% | viability, T/C [34] 38.6% | viability, T/C [35] 40.6% | viability, T/C [36] 36.4% | viability, T/C [37] 33.9% | viability, T/C [38] 35% | viability, T/C [39] 32.5% | viability, T/C [40] 30.1% | viability, T/C [41] 31.4% | viability, T/C [42] 28.8%
< 3.16 nM: IC50 [5] | IC50 [6]
90.2 nM: IC50 [4]
